Source: paper PMC3139667, “A Screen against Leishmania Intracellular Amastigotes: Comparison to a Promastigote Screen and Identification of a Host Cell-Specific Hit” (PLoS Neglected Tropical Diseases, 2011)
“Also recorded” adds a separate entry of the source. Structures can show the parent of a compound that is named as a salt. Where two headings read alike, the source gives them in different places.

Assays:
[1] = system: THP-1; assay: Host cell toxicity: THP-1 host nuclei counts in the image-based assay; settings: for GI50: read-out: GI50 THP-1; for Selectivity: ratio between parasite GI50 and THP-1 GI50
Description: (§1) Sterile, black, 96-well, clear bottom plates (Greiner Bio-One) were seeded with exponentially growing THP-1 (5×10^5cells/ml). THP-1 were treated with 0.1 µM phorbol myristate acetate (PMA, Sigma) at 37°C for 48 h to achieve differentiation into adherent, non-dividing macrophages. Maturation of THP-1 cells towards monocyte-macrophage like cells is essential to avoid parasitized cells being overgrown by replicating cells. After activation by PMA, cells were washed and incubated with complete RPMI medium containing stationary phase L. donovani promastigotes at a macrophage/promastigote ratio of 1/15. After 4 h incubation at 37°C, non-internalized promastigotes were removed by 2–3 successive washes with RPMI containing 5% FBS and 5% horse serum. Test compounds (10 µM), positive control (2 µM amphotericin B) or negative control (1% DMSO) were then added to the cultures using a Biomek FXp liquid handler (Beckman Coulter). Cultures were incubated at 37°C for 72 h. Cells were then washed with phosphate-buffered saline (PBS), fixed for 30 minutes with 4% formaldehyde, rinsed again with PBS, stained for 2 h with 4′,6′-diamidino-2-phenylindole (DAPI 300 nM) and finally washed with PBS. […] Images were acquired with an INCell Analyzer 1000 automated epi-fluorescent microscope (G.E. Healthcare). The excitation and emission filters used to detect DAPI were 350/50 nm and 460/40 nm respectively. Eight image fields were acquired per well with a 20X objective. The proprietary INCell Developer Toolbox 1.7 software was used for image analysis. Segmentation parameters were set to identify host nuclei with a minimum area of 250 µm^2 and parasite kinetoplast with an average area of 1 µm^2. The intensity of parasite nucleus was too low to be detected with a 20X objective. A border, representing the boundary of the cell, was drawn around the nucleus (total area between 700 and 2000 µm^2). Only parasites found within this area were included in the calculation to eliminate extracellular parasites. False positive parasite detection in the nucleus was also excluded from the calculation. Host cell nuclei and parasite kinetoplasts were counted and the ratio of parasites DNA to host nuclei was selected as the measurement output. Percentage inhibition of parasite growth was calculated as [1-(P/hcx-P/hc^+)/(P/hc^−-P/hc^+)]*100 where P/hcx, P/hc^+ and P/hc^− are parasite per host cell ratio for every well, positive control (amphotericin B) and negative control (DMSO) respectively. Calculation of Z' factor and GI50 curve fitting were carried out as described above.

[2] = system: L. donovani intracellular amastigotes; assay: Intracellular amastigote high-throughput image-based assay in infected THP-1 macrophages; type: cell-based, Leishmania donovani; settings: for GI50: read-out: GI50 Intracellular amastigote
Description: as §1

[3] = system: L. donovani promastigotes; assay: Promastigote high-throughput ATP-bioluminescence assay; type: cell-based, Leishmania donovani; settings: for GI50: read-out: GI50 Promastigote; for Activity against promastigotes (in words): dose response, up to 50 µM
Description: L. donovani promastigotes from an exponentially growing culture were diluted to 10^6/ml in RPMI containing 10% FBS and 10% BHT. The diluted culture (99 µl/well) was dispensed in sterile 96-well flat white opaque assay plates (Greiner Bio-One) using a WellMate multichannel dispenser (Matrix). 1 µl of 1 mM test compound dissolved in DMSO was added to the plates for a final concentration of 10 µM compound and 1% DMSO. Amphotericin B was added as a positive control (final concentration 2 µM, 1% DMSO) and as a negative control, 1 µl DMSO was added (1% final concentration). Compounds and controls were added to the assay plate with the robotic dispenser Biomek FXp liquid handler (Beckman Coulter). Promastigotes were incubated with the compounds for 72 h at 27°C. The parasites were then lysed by adding 50 µl of CellTiter-Glo (Promega) and placed on an orbital shaker for 5 min at room temperature. After lysis, the resulting ATP-bioluminescence was measured using the Analyst HT plate reader (Molecular Devices). Percentage inhibition of parasite growth was calculated for each well as [1-(RLUx-RLU^+)/(RLU^--RLU^+)]*100 where RLUx, RLU^+ and RLU^- are respectively the Relative Light Units for each well, positive (amphotericin B) and negative (DMSO) controls. A screening window coefficient, denoted Z' factor, was used to evaluate the performance of the assay. The Z' factor, calculated as 1-(3σc++3σc−)/(µc+−µc−) where σc+, σc−, µc+ and µc− are respectively the standard deviation and mean values of positive and negative controls, is reflective of the assay signal dynamic range and the data variation associated with signal measurement. […] GI50 curve fitting was carried out using GraphPad Prism 4 Software (GraphPad Software Inc., San Diego, CA).

[4] = system: L. donovani axenic amastigotes; assay: Dose response study against axenic amastigotes (CellTiter-Glo); type: cell-based, Leishmania donovani; settings: for GI50: read-out: GI50 Axenic amastigote; for Activity against axenic amastigotes (in words): dose response, up to 50 µM
Description: L. donovani axenic amastigotes (5×10^5 cells/ml in axenic amastigote media) were dispensed in sterile 96-well flat white opaque assay plates (Greiner Bio-One) using a WellMate multichannel dispenser (Matrix). […] 1% DMSO and amphotericin B (2 µM, 1% DMSO final concentration) were added as negative and positive controls respectively. Axenic amastigotes were incubated with the compounds for 72 h at 37°C with 5% CO2. Parasite viability was then measured using CellTiter-Glo as described above.

[5] = Leishmania donovani, THP-1, 72 h
[6] = ratio between promastigote GI50 and intracellular amastigote GI50, >2 more active against intracellular amastigote, <0.4 more active against promastigotes
[7] = Leishmania donovani, THP-1, 72 h, L. donovani in THP-1, 72 h, parasites per host cell
[8] = Leishmania donovani, 72 h at 27°C, CellTiter-Glo
[9] = Leishmania donovani, 72 h at 37°C, CellTiter-Glo
[10] = 10 µM, duplicates, hit = 60% parasite growth inhibition and not more than 20% reduction in THP-1 numbers
[11] = L. donovani in THP-1, 72 h, parasites per host cell
[12] = PMA-differentiated infected THP-1, 72 h, host nuclei count

Structure (SMILES)	GI50 ([1]; Homo sapiens, THP-1, 72 h)	Specificity [2, 6]	Selectivity [1]	GI50 [2, 7]	GI50 [3, 8]	GI50 [4, 9]	also measured
Oc1c(Cl)cc(Cl)c(Cl)c1Cc1c(O)c(Cl)cc(Cl)c1Cl [Hexachlorophene]	16.5 µM	3.49	–	–	–	–	GI50 [2, 5]: 4.54 µM; GI50 ([3]; Leishmania donovani, 72 h): 15.9 µM; GI50 ([4]; Leishmania donovani, 72 h): 14.8 µM
CN1C[C@H](CNC(=O)OCc2ccccc2)C[C@@H]2c3cccc4c3c(cn4C)C[C@H]21 [Metergoline]	37.1 µM	19.17	47.22	0.78 µM	15.1 µM	> 50 µM	–
Clc1ccc(COC(Cn2ccnc2)c2ccc(Cl)cc2Cl)c(Cl)c1 (stereo not shown) [Miconazole]	> 16.5 µM	0.48	1.07	15.4 µM	7.48 µM	4.73 µM	–
C[C@@H]1[C@H](O)[C@@H](C)/C=C/C=C/C=C/C=C/C=C/C=C/C=C/[C@H](O[C@@H]2O[C@H](C)[C@@H](O)[C@H](N)[C@@H]2O)C[C@@H]2O[C@](O)(C[C@@H](O)C[C@@H](O)[C@H](O)CC[C@@H](O)C[C@@H](O)CC(=O)O[C@H]1C)C[C@H](O)[C@H]2C(=O)O [Amphotericin B]	> 50 µM	1.43	44.52	–	1.61 µM	5.42 µM	Effect on growth of intracellular L. donovani ([2]; 2 µM, 72 h): significantly inhibited growth; Primary screen against intracellular amastigotes, hit selection [2, 10]: active; GI50 [2, 11]: 1.12 µM
Nc1c2ccccc2nc2ccccc12 [Aminacrine]	13 µM	4.71	6.82	1.9 µM	8.96 µM	> 16.5 µM	–
CCN(CC)c1ccc(C(=C2C=CC(=[N+](CC)CC)C=C2)c2ccccc2)cc1 [Brilliant green]	1.64 µM	0.02	15.88	6 µM	0.1 µM	0.03 µM	–
C=CCN1CC[C@]23c4c5ccc(O)c4O[C@H]2C(=O)CC[C@@]3(O)[C@H]1C5 [naloxone]	–	–	–	–	–	–	Toxicity to the host macrophage (in words) ([1]; dose response, up to 50 µM): not toxic; Primary screen against intracellular amastigotes, hit selection [2, 10]: not selected as a hit; Activity against intracellular amastigotes (in words) ([2]; dose response, up to 50 µM): inactive; also recorded: did not show any activity; Primary screen against promastigotes, hit selection ([3]; 10 µM, hit = 60% parasite growth inhibition): not selected as a hit; Activity against promastigotes (in words) [3]: inactive; Activity against axenic amastigotes (in words) [4]: inactive
CC/C(=C(\c1ccccc1)c1ccc(OCCN(C)C)cc1)c1ccccc1 [Tamoxifen Citrate]	> 16.5 µM	0.49	1.61	20.8 µM	10.2 µM	> 50 µM	Primary screen against intracellular amastigotes, hit selection [2, 10]: active
C=C1C(=O)O[C@H]2[C@H]1CC/C(C)=C/CC[C@@]1(C)O[C@@H]21 [Parthenolide]	> 16.5 µM	0.31	1.06	> 50 µM	15.5 µM	4.35 µM	–
CN1CCc2cccc3c2[C@H]1Cc1ccc(O)c(O)c1-3 [R(-)-Apomorphine]	–	–	6.1	–	–	–	GI50 [1, 12]: > 16.5 µM; Specificity [2]: 14.12; GI50 [2, 11]: 2.7 µM; GI50 ([3]; 72 h at 27°C, CellTiter-Glo): 38.1 µM; GI50 ([4]; 72 h at 37°C, CellTiter-Glo): 5.2 µM
COc1ccccc1OCCNCC(O)COc1cccc2[nH]c3ccccc3c12 (stereo not shown) [Carvedilol]	37.5 µM	2.01	6.07	6.16 µM	12.4 µM	> 16.5 µM	–
CCOC(=O)C1=C(COCCN)NC(C)=C(C(=O)OC)C1c1ccccc1Cl (stereo not shown) [Amlodipine]	> 16.5 µM	0.31	–	9.78 µM	3.11 µM	27 µM	–
CC[C@H]1CN2CCc3cc(OC)c(OC)cc3[C@@H]2C[C@@H]1C[C@H]1NCCc2cc(OC)c(OC)cc21 [Emetine]	1.28 µM	–	–	0.082 µM	0.03 µM	1.62 µM	–
COC(=O)C1=C(C)NC(C)=C(C(=O)OCC(C)C)C1c1ccccc1[N+](=O)[O-] (stereo not shown) [Nisoldipine]	> 16.5 µM	0.30	1.67	32.2 µM	9.85 µM	13.9 µM	–
[H]/N=C(\N/C(=N/[H])NCCCCCCNC(=N)NC(=N)Nc1ccc(Cl)cc1)Nc1ccc(Cl)cc1 [Chlorhexidine]	> 16.5 µM	1.56	9.27	1.79 µM	2.81 µM	4.78 µM	–
COC(=O)C[C@](O)(CCC(C)(C)O)C(=O)O[C@@H]1C(OC)=C[C@]23CCCN2CCc2cc4c(cc2[C@H]13)OCO4 [Harringtonin]	–	–	0.02	–	–	–	GI50 [1, 12]: 0.1 µM; Specificity [2]: 3.39; GI50 [2, 11]: 4.89 µM; GI50 ([3]; 72 h at 27°C, CellTiter-Glo): 16.6 µM; GI50 ([4]; 72 h at 37°C, CellTiter-Glo): 10.6 µM
Cc1ccc2c(Cl)cc(Cl)c(O)c2n1 [chlorquinaldol]	39.3 µM	1.14	7.14	5.5 µM	6.3 µM	1.72 µM	–
C[C@@H]1C[C@@H]([C@H](O)CC2CC(=O)NC(=O)C2)C(=O)[C@@H](C)C1 [Cycloheximide]	21 µM	2.55	18.13	–	–	–	GI50 [2, 5]: 1.15 µM; GI50 ([3]; Leishmania donovani, 72 h): 2.95 µM; GI50 ([4]; Leishmania donovani, 72 h): 0.39 µM
C=CCN1CC[C@]23c4c5ccc(O)c4O[C@H]2/C(=N/N=C2\CC[C@@]4(O)[C@H]6Cc7ccc(O)c8c7[C@@]4(CCN6CC=C)[C@H]2O8)CC[C@@]3(O)[C@H]1C5 [Naloxonazine]	33.8 µM	–	9.68	3.45 µM	> 50 µM	> 50 µM	GI90 THP-1 [1]: 50 µM; Primary screen against intracellular amastigotes, hit selection [2]: complete specificity for the intracellular amastigote stage; Specificity [2]: 14.32; GI50 [2, 11]: 3.49 µM; GI90 intracellular amastigote ([2]; curative concentration): 12.5 µM; Activity against promastigotes (in words) [3]: no activity; also recorded: completely inactive; Activity against axenic amastigotes (in words) [4]: no activity
CC(C)(C)c1ccc(S(=O)(=O)/C=C/C#N)cc1 [BAY 11–7085]	–	–	32.46	–	–	–	GI50 [1, 12]: > 50 µM; Specificity [2]: 0.06; GI50 ([3]; 72 h at 27°C, CellTiter-Glo): 1.54 µM; GI50 ([4]; 72 h at 37°C, CellTiter-Glo): 0.42 µM
